Here are results for 5 molecules from patent US20030087761A1, “Synergistic active compound combinations for controlling harmful plants” (priority 2001, published 2003).

What all share (assay type): in vivo
In one series the test system is Winter wheat. The experiment in a line: Field trial in winter wheat, post-emergence method: crop damage. To be noted: post-emergence at middle tillering stage, evaluation 21 days after application, dose 50 g ai/ha. As for the experimental part: (§1) The herbicidal efficacy of the active compounds or active compound mixtures was scored visually using the treated plots in comparison to untreated control plots. The damage and development of all above-ground parts of the plants were recorded. Scoring was carried out using a percentage scale (100% effect=all plants killed; 50% effect=50% of the plants and the green parts of the plants killed; 0% effect no noticeable effect=like control plot). The scores of in each case 4 plots were averaged.
(§2) Crop plants were grown outdoors on plots under natural outdoor conditions, and seeds or rhizome pieces of typical harmful plants were laid out or the natural weed growth was utilized. Treatment with the compositions according to the invention was carried out after the harmful plants had emerged and the crop plants were, generally, at the 2- to 4-leaf stage; in some cases (as stated), application of individual active compounds or active compound combinations was carried out pre-emergence (cf. Section 1) or post-emergence (cf. Section 2) or as a sequential treatment partly pre-emergence and/or post-emergence. After the application, for example 2, 4, 6 and 8 weeks after the application, the effect of the preparations was scored visually by comparison with untreated controls (cf. scoring in Section 1). […]

Series [1] relates to APESV = Apera spica-venti (common wind grass). The experiment in a line: Field trial in winter wheat, post-emergence method: herbicidal effect on APESV. To be noted: post-emergence at middle tillering stage, evaluation 21 days after application, dose 50 g ai/ha. As for the experimental part: as §1, §2
A further series deals with ECHCG. The experiment in a line: Field trial in corn, pre-emergence method: herbicidal effect on ECHCG. To be noted: evaluation 36 days after application. The method, then:
as §1
(§3) Crop plants were grown outdoors on plots under natural outdoor conditions, and seeds or rhizome pieces of typical harmful plants were laid out or the natural weed growth was utilized. Treatment with the compositions according to the invention was carried out after the harmful plants had emerged and the crop plants were, generally, at the 2- to 4-leaf stage; in some cases (as stated), application of individual active compounds or active compound combinations was carried out pre-emergence (cf. Section 1) or post-emergence (cf. Section 2) or as a sequential treatment partly pre-emergence and/or post-emergence. After the application, for example 2, 4, 6 and 8 weeks after the application, the effect of the preparations was scored visually by comparison with untreated controls (cf. scoring in Section 1). In the field trial as well, the compositions according to the invention have synergistic herbicidal activity against a broad spectrum of economically important weed grasses and broad-leaved weeds. […] Moreover, the effects in essential phases of the scoring period were above the expected values according to Colby, also indicating synergism. In contrast, the crop plants were, as a consequence of the treatments with the herbicidal compositions, damaged only to a small degree, if at all.
(§4) The numbers in the columns of the table under the designations of the harmful plants and the crop plants relate to the herbicidal effects or damage to the plants in percent.

The test system of the next series is CHEAL. The experiment in a line: Field trial in corn, pre-emergence method: herbicidal effect on CHEAL. The conditions noted are these: evaluation 36 days after application. The method, then:
as §1, §3, §4

The subject of another series is Corn. Briefly: Field trial in corn, pre-emergence method: crop damage. As for the experimental part: as §1, §3, §4
The mark [2] stands for this setting: field trial, pre-emergence, evaluation 36 days after application, dose 75 g ai/ha.

Consider `CCC(F)c1nc(N)nc(C(C)c2cc(F)cc(F)c2)n1` (stereo not shown) [(A60), 2-amino-4-(1-fluoropropyl)-6-[1-(3,5-difluorophenyl)ethyl]-1,3,5-triazine], for which the “Winter wheat [damage in %]” value with Winter wheat is given as 0%. Also, the “APESV [effect in %]” value in series [1] came out at 0%.
For the molecule `CCC(F)c1nc(N)nc(C(C)c2ccc(F)c(C)c2)n1` (stereo not shown) [(A20), 2-amino-4-(1-fluoropropyl)-6-[1-(3-methyl-4-fluorophenyl)ethyl]-1,3,5-triazine], the “ECHCG [effect in %]” value in the series on ECHCG (dose 75 g ai/ha) is listed as 0%. In addition, the “CHEAL [effect in %]” value in the series on CHEAL (dose 75 g ai/ha) is recorded as 20%. The “Corn [damage in %]” value in the series on Corn (setting [2]) turned out to be 0%.
On to `CC(F)c1nc(N)nc(C(C)c2ccc(F)c(F)c2)n1` (stereo not shown) [(A11), 2-amino-4-(1-fluoroethyl)-6-[1-(3,4-difluorophenyl)ethyl]-1,3,5-triazine], for which the “ECHCG [effect in %]” value in the series on ECHCG (dose 75 g ai/ha) is 0%. Moreover, the “CHEAL [effect in %]” value with CHEAL (dose 75 g ai/ha) is on record as 0%. Also, the “Corn [damage in %]” value with Corn (setting [2]) is reported as 0%.
Consider `CCC(F)c1nc(N)nc(C(C)c2ccc(F)c(Cl)c2)n1` (stereo not shown) [(A50), 2-amino-4-(1-fluoropropyl)-6-[1-(3-chloro-4-fluorophenyl)ethyl]-1,3,5-triazine], for which the “Winter wheat [damage in %]” value in the series with Winter wheat is 0%. Moreover, the “APESV [effect in %]” value in series [1] was 0%.
Turning to `CS(=O)(=O)c1cc(C(F)(F)F)ccc1C(=O)c1cnoc1C1CC1` [(B3.4.4), isoxaflutole, reference compound], the “ECHCG [effect in %]” value in the series with ECHCG (dose 50 g ai/ha) was 86%. Besides, the “CHEAL [effect in %]” value in the series with CHEAL (dose 50 g ai/ha) was 25%. In addition, in the series on Corn (corn, in vivo, 36 days), the “Corn [damage in %]” value turned out to be 0%.
